“And” between values parts separate entries of the source, which are not always exact repeats. Equal values may be shown once.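 Cultured in 96-well plates, cells were exposed to test compound for 48 hours across five concentrations. At the GI50, growth is halved. TGI marks complete inhibition of growth.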
Each compound was assayed on SK-OV-3 ovarian (assay: inhibition of tumour cell growth, NCI panel, 48 h).
For `Nc1ccccc1S(=O)(=O)N(CC(=O)O)c1ccccc1`, the TGI was over 100 µM. Work on `CNS(=O)(=O)NNS(=O)(=O)c1ccccc1` yielded a TGI of over 100 µM. `Cc1cc(NS(=O)(=O)c2ccc(Nc3c4ccccc4nc4c(C(=O)N5CCN(CCOS(C)(=O)=O)CC5)cccc34)cc2)no1` gave a TGI of over 100 µM. For `O=C(O)CCC(NC(=O)c1ccc(Nc2nc3ccccc3nc2-c2cccs2)cc1)C(=O)O` (stereo unspecified), the TGI was over 100 µM. With `NC1=NCCC1(c1ccccc1)c1ccccn1` (stereo unspecified) the TGI was over 100 µM. With `CNC(=S)OCCC(C)CCCC(C)C` (stereo unspecified) the TGI was 41.6 µM. `COC1/C=C/OC2(C)Oc3c(C)c(O)c4c(O)c(c(/C=N/Nc5ccc([N+](=O)[O-])cc5[N+](=O)[O-])c(O)c4c3C2=O)NC(=O)C(C)=C/C=C/C(C)C(O)C(C)C(O)C(C)C(OC(C)=O)C1C` (stereo unspecified) showed a GI50 of 10.6 µM and a TGI of 31.1 µM. Compound `COC(=O)/C(C#N)=C1\NC(=O)c2ccccc21` has a TGI of over 100 µM. In the case of `Fc1ccc(NC(=S)SCc2ccc3c(c2)OCO3)cc1F`, the TGI is reported as over 100 µM.

The compounds below were run on OVCAR-8 ovarian (assay: inhibition of tumour cell growth, NCI panel, 48 h).
Compound `COc1cc2c(c3oc4c(O)cccc4c(=O)c13)CC(C(C)(O)CO)O2` (stereo unspecified) has a TGI of over 100 µM. `Cc1c(C(=O)C/C(=N/NC(=O)c2ccccc2O)C(=O)Nc2ccccc2C(C)C)[n+](=O)c2ccccc2n1[O-]` showed a TGI of over 100 µM. `CCCCCCCCCCCC(=O)OCCOCCOCCOCCOCCOCc1ccccc1` showed a TGI of over 100 µM. With `CCCC1C(=O)CCc2c(OC)ccc(OC)c21` (stereo unspecified) the TGI was over 100 µM. `O=C(CCc1nc(=S)[nH][nH]1)Nc1cc(Cl)c(Cl)cc1Cl` was tested, and the TGI was over 100 µM. Compound `O=C(Nc1nc2ccc([N+](=O)[O-])cc2s1)C(=O)C(C1OC(=O)c2ccccc21)[N+](=O)[O-]` (stereo unspecified) has a TGI of over 100 µM. `O=C(CCc1nc(=S)[nH][nH]1)Nc1ccc(Cl)c(Cl)c1` was tested, and the TGI was over 100 µM. `COC(=O)C1(C(C)C)CCc2c(OC)ccc(OC)c2C1=O` (stereo unspecified) was tested, and the TGI was over 100 µM. With `Cc1ccc(Cl)c2c(N=Nc3ccccc3[N+](=O)[O-])c(O)[nH]c12` the TGI was over 100 µM. Compound `C=CCOc1ccc2c(C)cc(=O)oc2c1C` has a TGI of over 100 µM. Work on `COC(=O)c1ccccc1NC(=O)C(=O)Cc1nc2c3c(ccc2[nH]c1=O)C(=O)c1ccccc1C3=O` yielded a TGI of over 100 µM. `Cc1ccc(S(=O)(=O)OC[C@@H]2CO2)cc1` gave a TGI of over 100 µM. In the case of `COc1cc2cc(OC)c3cc4c(cc3c2c(OC)c1OC)OCO4`, the TGI is reported as over 100 µM. Compound `O=C(CC(=O)c1cccc2ccccc12)C(=O)Nc1ccc(Cl)cc1` has a TGI of over 100 µM. With `C=CCO[C@H]1CO[C@H]2[C@@H]1OC[C@@H]2Oc1ccc(Nc2ccnc(Nc3ccc(O[C@H]4CO[C@H]5[C@@H]4OC[C@@H]5OCC=C)c(Cl)c3)n2)cc1Cl` the GI50 was 1.93 µM and the TGI was 5.92 µM. In the case of `CCCCCCCCCCCCCC(=O)OC(/C=C/C(C)C)C(O)C(O)C(OC)C(=O)NC1CCCCN(C)C1=O` (stereo unspecified), the TGI is reported as 8.44 µM and > 49 µM. In the case of `CC1(C(=O)O)CCC[C@@]2(C)C1CC[C@@]1(C)c3cocc3CCC21` (stereo partly specified), the TGI is reported as over 100 µM. With `CCn1c(C)nn2c(=O)c3ccccc3nc2c1=O` the TGI was over 100 µM. `CCOC(=O)CCC1(C(=O)OCC)CCCCC1=O` (stereo unspecified) was tested, and the TGI was over 100 µM. For `CCN(CC)CCSc1c2ccccc2nc2cc(NCC(=O)Nc3ccccc3-c3ccccc3NC(=O)CNc3ccc4c(SCCN(CC)CC)c5ccccc5nc4c3)ccc12`, the TGI was over 100 µM. `Cc1nc2c(ccc3ncccc32)[nH]1` showed a TGI of over 100 µM. Compound `O=C(CCNC12CC3CC(CC(C3)C1)C2)c1ccccc1` has a TGI of 45 µM. `CCN1CCN(Cc2ccc(NC(=O)c3cccc(C#Cc4cccc5[nH]nc(N)c45)c3)cc2C(F)(F)F)CC1` showed a GI50 of 0.395 µM and a TGI of 1.53 µM. Compound `Cc1cc(N(CCC#N)CCC#N)ccc1N=Nc1ccc(S(N)(=O)=O)cc1` has a TGI of over 100 µM. `CC(C)=CCC\C(C)=C/C=C/C(C)=C\C=C\C(C)=C/C=C/C=C(C)\C=C\C=C(C)/C=C/C=C(/C)CCC=C(C)C` showed a TGI of over 100 µM. `CC(=O)[CH-]C(=O)c1ccccc1.CC(=O)[CH-]C(=O)c1ccccc1.CN(C)c1ccc([O-])cc1.CN(C)c1ccc([O-])cc1.Cl.[Ti+4]` was tested, and the GI50 was 21.9 µM and the TGI was over 31.6 µM. Compound `CC1(C)C(=O)/C=C\C(=O)C(C)(C)C2=CC=C(O2)C(C)(C)C(=O)/C=C\C(=O)C(C)(C)C2=CC=C1O2` has a TGI of over 100 µM. `NC(=O)NO.O.O.O.O.O.O.O.O.O.O.O.[Ge].[Ge].[Ge].[Ge].[Ge].[O]=[Ge].[O]=[Ge].[O]=[Ge].[O]=[Ge].[O]=[Ge][OH]` was tested, and the TGI was over 100 µM. For `CN(C)C(=S)N=C(Nc1ccccc1)Nc1ccccc1`, the TGI was over 100 µM. Work on `COC(=O)CC[N+]1=CCC(c2ccccc2)(c2ccccc2)O1` yielded a TGI of over 100 µM. Compound `CCC[CH2][Sn]([CH2]CCC)([S]c1cccc2cccnc12)[S]c1cccc2cccnc12` has a GI50 of 0.283 µM and a TGI of 1.16 µM. Compound `OCC1=CC(NC2CC(CO)C(O)C(O)C2O)C(O)C(O)C1O` (stereo unspecified) has a TGI of over 100 µM. In the case of `OCCN(CCO)c1ncnc2c1ncn2Cc1ccc(CCl)cc1`, the GI50 is reported as 15.4 µM and the TGI is reported as 31.7 µM. In the case of `Nc1ccccc1S(=O)(=O)N(CC(=O)O)c1ccccc1`, the TGI is reported as over 100 µM. Work on `CCOC(=O)C(C)(C)Oc1ccc2c(-c3ccccc3)cc(=O)oc2c1` yielded a TGI of over 100 µM. `CNS(=O)(=O)NNS(=O)(=O)c1ccccc1` showed a TGI of over 100 µM. With `Cc1cc(NS(=O)(=O)c2ccc(Nc3c4ccccc4nc4c(C(=O)N5CCN(CCOS(C)(=O)=O)CC5)cccc34)cc2)no1` the TGI was over 100 µM. For `O=C(O)CCC(NC(=O)c1ccc(Nc2nc3ccccc3nc2-c2cccs2)cc1)C(=O)O` (stereo unspecified), the TGI was over 100 µM. `NC1=NCCC1(c1ccccc1)c1ccccn1` (stereo unspecified) was tested, and the TGI was over 100 µM. Compound `CNC(=S)OCCC(C)CCCC(C)C` (stereo unspecified) has a TGI of 31.5 µM. In the case of `COC1/C=C/OC2(C)Oc3c(C)c(O)c4c(O)c(c(/C=N/Nc5ccc([N+](=O)[O-])cc5[N+](=O)[O-])c(O)c4c3C2=O)NC(=O)C(C)=C/C=C/C(C)C(O)C(C)C(O)C(C)C(OC(C)=O)C1C` (stereo unspecified), the GI50 is reported as 1.41 µM and the TGI is reported as 3.93 µM. `COC(=O)/C(C#N)=C1\NC(=O)c2ccccc21` was tested, and the TGI was over 100 µM. `Fc1ccc(NC(=S)SCc2ccc3c(c2)OCO3)cc1F` gave a TGI of 35.9 µM.

What follows are compounds tested on M14 melanoma (assay: inhibition of tumour cell growth, NCI panel, 48 h).
For `COc1cc2c(c3oc4c(O)cccc4c(=O)c13)CC(C(C)(O)CO)O2` (stereo unspecified), the TGI was over 100 µM. Work on `Cc1c(C(=O)C/C(=N/NC(=O)c2ccccc2O)C(=O)Nc2ccccc2C(C)C)[n+](=O)c2ccccc2n1[O-]` yielded a TGI of over 100 µM. Work on `CCCCCCCCCCCC(=O)OCCOCCOCCOCCOCCOCc1ccccc1` yielded a TGI of over 100 µM. Compound `CCCC1C(=O)CCc2c(OC)ccc(OC)c21` (stereo unspecified) has a TGI of over 100 µM. `O=C(CCc1nc(=S)[nH][nH]1)Nc1cc(Cl)c(Cl)cc1Cl` was tested, and the TGI was over 100 µM. In the case of `O=C(Nc1nc2ccc([N+](=O)[O-])cc2s1)C(=O)C(C1OC(=O)c2ccccc21)[N+](=O)[O-]` (stereo unspecified), the TGI is reported as over 100 µM. `O=C(CCc1nc(=S)[nH][nH]1)Nc1ccc(Cl)c(Cl)c1` showed a TGI of over 100 µM. Work on `COC(=O)C1(C(C)C)CCc2c(OC)ccc(OC)c2C1=O` (stereo unspecified) yielded a TGI of over 100 µM. Compound `Cc1ccc(Cl)c2c(N=Nc3ccccc3[N+](=O)[O-])c(O)[nH]c12` has a TGI of over 100 µM. Work on `C=CCOc1ccc2c(C)cc(=O)oc2c1C` yielded a TGI of over 100 µM. Work on `COC(=O)c1ccccc1NC(=O)C(=O)Cc1nc2c3c(ccc2[nH]c1=O)C(=O)c1ccccc1C3=O` yielded a TGI of over 100 µM. Compound `Cc1ccc(S(=O)(=O)OC[C@@H]2CO2)cc1` has a TGI of over 100 µM. For `COc1cc2cc(OC)c3cc4c(cc3c2c(OC)c1OC)OCO4`, the TGI was over 62.1 µM. `O=C(CC(=O)c1cccc2ccccc12)C(=O)Nc1ccc(Cl)cc1` showed a TGI of over 100 µM. For `C=CCO[C@H]1CO[C@H]2[C@@H]1OC[C@@H]2Oc1ccc(Nc2ccnc(Nc3ccc(O[C@H]4CO[C@H]5[C@@H]4OC[C@@H]5OCC=C)c(Cl)c3)n2)cc1Cl`, the GI50 was 1.77 µM and the TGI was 3.4 µM. In the case of `CCCCCCCCCCCCCC(=O)OC(/C=C/C(C)C)C(O)C(O)C(OC)C(=O)NC1CCCCN(C)C1=O` (stereo unspecified), the GI50 is reported as over 49 µM and the TGI is reported as 6.09 µM and > 49 µM. `CC1(C(=O)O)CCC[C@@]2(C)C1CC[C@@]1(C)c3cocc3CCC21` (stereo partly specified) gave a TGI of over 100 µM. Compound `CCn1c(C)nn2c(=O)c3ccccc3nc2c1=O` has a TGI of over 100 µM. For `CCN(CC)CCSc1c2ccccc2nc2cc(NCC(=O)Nc3ccccc3-c3ccccc3NC(=O)CNc3ccc4c(SCCN(CC)CC)c5ccccc5nc4c3)ccc12`, the TGI was over 100 µM. Work on `Cc1nc2c(ccc3ncccc32)[nH]1` yielded a TGI of over 100 µM. `O=C(CCNC12CC3CC(CC(C3)C1)C2)c1ccccc1` was tested, and the TGI was 37.1 µM. `CCN1CCN(Cc2ccc(NC(=O)c3cccc(C#Cc4cccc5[nH]nc(N)c45)c3)cc2C(F)(F)F)CC1` was tested, and the GI50 was 0.0622 µM and the TGI was 0.547 µM. Compound `Cc1cc(N(CCC#N)CCC#N)ccc1N=Nc1ccc(S(N)(=O)=O)cc1` has a TGI of over 100 µM. In the case of `CC(C)=CCC\C(C)=C/C=C/C(C)=C\C=C\C(C)=C/C=C/C=C(C)\C=C\C=C(C)/C=C/C=C(/C)CCC=C(C)C`, the TGI is reported as over 100 µM. `CC(=O)[CH-]C(=O)c1ccccc1.CC(=O)[CH-]C(=O)c1ccccc1.CN(C)c1ccc([O-])cc1.CN(C)c1ccc([O-])cc1.Cl.[Ti+4]` showed a GI50 of 17.5 µM and a TGI of over 31.6 µM. Compound `NC(=O)NO.O.O.O.O.O.O.O.O.O.O.O.[Ge].[Ge].[Ge].[Ge].[Ge].[O]=[Ge].[O]=[Ge].[O]=[Ge].[O]=[Ge].[O]=[Ge][OH]` has a TGI of over 89 µM. `CN(C)C(=S)N=C(Nc1ccccc1)Nc1ccccc1` showed a TGI of over 100 µM. `COC(=O)CC[N+]1=CCC(c2ccccc2)(c2ccccc2)O1` gave a TGI of over 100 µM. `CCC[CH2][Sn]([CH2]CCC)([S]c1cccc2cccnc12)[S]c1cccc2cccnc12` showed a GI50 of 0.175 µM and a TGI of 0.339 µM. In the case of `OCC1=CC(NC2CC(CO)C(O)C(O)C2O)C(O)C(O)C1O` (stereo unspecified), the TGI is reported as over 100 µM. `OCCN(CCO)c1ncnc2c1ncn2Cc1ccc(CCl)cc1` showed a GI50 of 13.8 µM and a TGI of 28.4 µM.
